For assay [1], the system named is A549. Briefly: Cytotoxicity against human A549 cells after 72 hrs by MTT assay. The format is functional, cell-based. The note with it: A549, 72 h. A general note: Tetrazolium dyes change colour on reduction, which living cells bring about.
In assay [2] the test system is HepG2. Briefly: Cytotoxicity against human HepG2 cells after 72 hrs by MTT assay. The format is functional, cell-based. The note with it: HepG2, 72 h.
Assay [3] in a line: Cytotoxicity against human KCC-853 cells after 72 hrs by MTT assay. The settings on record: KCC-853, 72 h. Type of assay: functional, cell-based.
The target of assay [4] is RAF proto-oncogene serine/threonine-protein kinase (Homo sapiens) (UniProt P04049). As to the kind of experiment: Inhibition of c-RAF (unknown origin) using [33P]ATP by […] assay.
Assay [5] addresses Vascular endothelial growth factor receptor 2 (Homo sapiens) (UniProt P35968). Briefly: Inhibition of KDR (unknown origin) at 10 uM.
The target of assay [6] is Receptor-type tyrosine-protein kinase FLT3 (Homo sapiens) (UniProt P36888). As to the kind of experiment: Inhibition of FLT3 (unknown origin) at 10 uM.
In assay [7] the target is Macrophage colony-stimulating factor 1 receptor (Homo sapiens) (UniProt P07333). As to the kind of experiment: Inhibition of FMS (unknown origin) at 10 uM.
Assay [8] concerns the target Fibroblast growth factor receptor 1 (Homo sapiens) (UniProt P11362). As to the kind of experiment: Inhibition of FGFR1 (unknown origin) at 10 uM.
Assay [9] addresses Serine/threonine-protein kinase PLK1 (Homo sapiens) (UniProt P53350). Briefly: Inhibition of PLK1 (unknown origin) at 10 uM.
In assay [10] the target is Platelet-derived growth factor receptor alpha (Homo sapiens) (UniProt P16234). Briefly: Inhibition of PDGFR-alpha (unknown origin) at 10 uM.
Assay [11] deals with Cyclin-dependent kinase 2 (Homo sapiens) (UniProt P24941). Briefly: Inhibition of CDK2 (unknown origin) at 10 uM.
For assay [12], the target named is RAC-alpha serine/threonine-protein kinase (Homo sapiens) (UniProt P31749). Briefly: Inhibition of AKT1 (unknown origin) at 10 uM.
For assay [13], the target named is Vascular endothelial growth factor receptor 2 (Homo sapiens) (UniProt P35968). Briefly: Inhibition of VEGFR2 (unknown origin) at 10 uM.
Assay [14] addresses Inhibitor of nuclear factor kappa-B kinase subunit beta (Homo sapiens) (UniProt O14920). As to the kind of experiment: Inhibition of IKKbeta (unknown origin) at 10 uM.
For assay [15], the target named is RAF proto-oncogene serine/threonine-protein kinase (Homo sapiens) (UniProt P04049). Briefly: Inhibition of c-RAF (unknown origin) at 10 uM.
Assay [16] addresses Focal adhesion kinase 1 (Homo sapiens) (UniProt Q05397). Briefly: Inhibition of PTK2 (unknown origin) at 10 uM.
In assay [17] the target is Angiopoietin-1 receptor (Homo sapiens) (UniProt Q02763). Briefly: Inhibition of TIE2 (unknown origin) at 10 uM.
The target in assay [18] is Mast/stem cell growth factor receptor Kit (Homo sapiens) (UniProt P10721). Briefly: Inhibition of c-Kit (unknown origin) at 10 uM.
Assay [19] addresses Tyrosine-protein kinase SYK (Homo sapiens) (UniProt P43405). Briefly: Inhibition of SYK (unknown origin) at 10 uM.
Assay [20] concerns the target Hepatocyte growth factor receptor (Homo sapiens) (UniProt P08581). Briefly: Inhibition of c-MET (unknown origin) at 10 uM.
For assay [21], the species on record is Homo sapiens. Briefly: Inhibition of PKA (unknown origin) at 10 uM.
The target in assay [22] is Tyrosine-protein kinase Fyn (Homo sapiens) (UniProt P06241). As to the kind of experiment: Inhibition of FYN (unknown origin) at 10 uM.
For assay [23], the target named is Tyrosine-protein kinase JAK2 (Homo sapiens) (UniProt O60674). As to the kind of experiment: Inhibition of JAK2 (unknown origin) at 10 uM.
Assay [24] deals with Tyrosine-protein kinase ABL1 (Homo sapiens) (UniProt P00519). Briefly: Inhibition of ABL1 (unknown origin) at 10 uM.

As a reminder, the IC50 is the concentration that inhibits the measured activity by half. The inhibition is how much of the control response was suppressed. Low values mean a weak effect, high ones a strong effect.

RAF proto-oncogene serine/threonine-protein kinase (Homo sapiens), sequence (P04049 whole entry): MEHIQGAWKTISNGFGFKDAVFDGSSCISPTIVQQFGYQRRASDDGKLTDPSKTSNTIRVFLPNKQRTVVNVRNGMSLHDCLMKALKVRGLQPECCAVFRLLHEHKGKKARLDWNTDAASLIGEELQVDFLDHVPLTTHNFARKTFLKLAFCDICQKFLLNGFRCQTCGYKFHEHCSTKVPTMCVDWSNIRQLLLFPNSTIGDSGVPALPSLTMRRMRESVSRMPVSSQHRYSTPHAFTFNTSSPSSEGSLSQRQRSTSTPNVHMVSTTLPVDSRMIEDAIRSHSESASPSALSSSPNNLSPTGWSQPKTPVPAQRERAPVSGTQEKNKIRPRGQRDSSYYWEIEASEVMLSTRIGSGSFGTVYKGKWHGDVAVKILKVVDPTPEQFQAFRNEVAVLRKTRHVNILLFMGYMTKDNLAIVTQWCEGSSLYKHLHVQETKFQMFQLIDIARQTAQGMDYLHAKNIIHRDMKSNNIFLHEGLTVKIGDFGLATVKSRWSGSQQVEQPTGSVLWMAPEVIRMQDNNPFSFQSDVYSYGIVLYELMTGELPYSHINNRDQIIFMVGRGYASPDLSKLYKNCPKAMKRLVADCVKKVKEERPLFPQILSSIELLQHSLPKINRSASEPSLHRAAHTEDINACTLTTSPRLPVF
Vascular endothelial growth factor receptor 2 (Homo sapiens), sequence (P35968 whole entry): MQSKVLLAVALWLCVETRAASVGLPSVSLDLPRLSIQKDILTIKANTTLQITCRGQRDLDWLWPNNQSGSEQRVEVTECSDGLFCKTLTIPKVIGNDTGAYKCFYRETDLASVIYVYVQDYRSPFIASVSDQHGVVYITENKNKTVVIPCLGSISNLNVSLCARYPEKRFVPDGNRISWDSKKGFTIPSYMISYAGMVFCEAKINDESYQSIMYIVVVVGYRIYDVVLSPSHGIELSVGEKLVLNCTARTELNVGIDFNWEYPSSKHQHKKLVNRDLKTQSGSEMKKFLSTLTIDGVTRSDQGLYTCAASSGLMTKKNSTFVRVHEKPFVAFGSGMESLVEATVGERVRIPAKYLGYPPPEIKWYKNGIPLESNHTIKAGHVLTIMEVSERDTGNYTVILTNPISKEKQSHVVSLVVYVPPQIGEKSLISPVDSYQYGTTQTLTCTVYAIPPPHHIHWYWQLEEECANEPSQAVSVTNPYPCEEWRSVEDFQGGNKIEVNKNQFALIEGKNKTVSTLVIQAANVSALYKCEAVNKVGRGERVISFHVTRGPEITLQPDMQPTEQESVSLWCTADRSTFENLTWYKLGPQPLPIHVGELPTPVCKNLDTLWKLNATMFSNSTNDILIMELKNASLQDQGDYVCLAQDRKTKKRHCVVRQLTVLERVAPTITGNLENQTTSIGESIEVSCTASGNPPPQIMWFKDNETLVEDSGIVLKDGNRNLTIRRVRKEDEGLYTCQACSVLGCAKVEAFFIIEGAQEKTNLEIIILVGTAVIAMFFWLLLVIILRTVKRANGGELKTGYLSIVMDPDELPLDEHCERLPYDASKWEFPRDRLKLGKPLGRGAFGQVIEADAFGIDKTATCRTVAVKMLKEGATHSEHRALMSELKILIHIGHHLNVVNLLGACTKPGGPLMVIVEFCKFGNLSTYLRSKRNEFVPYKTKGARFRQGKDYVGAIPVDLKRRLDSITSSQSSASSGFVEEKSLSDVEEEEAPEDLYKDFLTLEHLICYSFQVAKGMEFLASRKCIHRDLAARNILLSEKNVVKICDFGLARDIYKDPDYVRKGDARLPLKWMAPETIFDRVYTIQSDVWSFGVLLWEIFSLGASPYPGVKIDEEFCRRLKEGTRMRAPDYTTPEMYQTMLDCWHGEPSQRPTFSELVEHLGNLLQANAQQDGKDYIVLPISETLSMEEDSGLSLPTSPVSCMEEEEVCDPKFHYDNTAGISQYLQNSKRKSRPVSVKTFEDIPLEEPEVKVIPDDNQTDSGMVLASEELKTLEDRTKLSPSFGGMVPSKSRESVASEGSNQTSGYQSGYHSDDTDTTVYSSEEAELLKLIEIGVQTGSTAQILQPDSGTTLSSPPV
Serine/threonine-protein kinase PLK1 (Homo sapiens), sequence (P53350 whole entry): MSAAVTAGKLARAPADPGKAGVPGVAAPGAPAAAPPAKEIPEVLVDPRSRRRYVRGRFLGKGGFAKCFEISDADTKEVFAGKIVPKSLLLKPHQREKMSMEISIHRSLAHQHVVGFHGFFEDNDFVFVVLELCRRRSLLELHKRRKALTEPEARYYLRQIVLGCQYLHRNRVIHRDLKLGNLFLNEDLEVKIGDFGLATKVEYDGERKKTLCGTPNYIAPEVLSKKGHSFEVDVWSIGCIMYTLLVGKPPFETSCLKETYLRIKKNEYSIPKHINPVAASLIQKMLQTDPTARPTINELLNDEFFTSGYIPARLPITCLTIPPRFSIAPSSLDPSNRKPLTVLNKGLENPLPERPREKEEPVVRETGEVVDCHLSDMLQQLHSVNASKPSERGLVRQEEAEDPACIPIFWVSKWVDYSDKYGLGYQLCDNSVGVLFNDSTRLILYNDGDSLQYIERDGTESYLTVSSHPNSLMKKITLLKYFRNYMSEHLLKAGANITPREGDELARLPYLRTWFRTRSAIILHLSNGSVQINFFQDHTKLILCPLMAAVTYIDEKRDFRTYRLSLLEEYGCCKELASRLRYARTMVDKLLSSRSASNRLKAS
Receptor-type tyrosine-protein kinase FLT3 (Homo sapiens), sequence (P36888 whole entry): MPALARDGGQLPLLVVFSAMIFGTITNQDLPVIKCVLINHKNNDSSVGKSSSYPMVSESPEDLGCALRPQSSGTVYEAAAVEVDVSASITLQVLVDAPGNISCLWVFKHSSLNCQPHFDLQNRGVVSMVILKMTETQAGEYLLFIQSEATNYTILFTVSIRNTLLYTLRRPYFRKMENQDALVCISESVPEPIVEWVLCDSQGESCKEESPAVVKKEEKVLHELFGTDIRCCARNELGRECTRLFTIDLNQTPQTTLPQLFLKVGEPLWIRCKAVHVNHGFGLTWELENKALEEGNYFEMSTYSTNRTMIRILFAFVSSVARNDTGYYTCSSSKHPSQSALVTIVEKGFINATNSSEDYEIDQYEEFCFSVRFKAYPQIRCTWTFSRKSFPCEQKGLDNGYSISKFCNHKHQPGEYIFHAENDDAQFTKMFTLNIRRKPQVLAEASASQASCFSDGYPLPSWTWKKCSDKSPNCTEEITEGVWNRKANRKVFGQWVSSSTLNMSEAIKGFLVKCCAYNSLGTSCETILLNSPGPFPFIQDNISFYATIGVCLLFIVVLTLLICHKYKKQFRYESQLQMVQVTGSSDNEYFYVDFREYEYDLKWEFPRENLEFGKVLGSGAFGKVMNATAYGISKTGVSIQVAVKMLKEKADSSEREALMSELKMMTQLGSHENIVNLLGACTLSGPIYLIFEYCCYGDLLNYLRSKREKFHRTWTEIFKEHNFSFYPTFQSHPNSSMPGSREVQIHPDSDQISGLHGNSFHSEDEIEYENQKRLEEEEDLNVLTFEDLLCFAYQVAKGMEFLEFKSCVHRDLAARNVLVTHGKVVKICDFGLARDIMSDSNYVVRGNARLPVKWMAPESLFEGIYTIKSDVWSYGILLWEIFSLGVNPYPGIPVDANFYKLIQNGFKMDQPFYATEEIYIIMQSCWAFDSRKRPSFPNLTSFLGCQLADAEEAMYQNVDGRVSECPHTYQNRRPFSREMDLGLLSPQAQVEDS
Tyrosine-protein kinase JAK2 (Homo sapiens), sequence (O60674 whole entry): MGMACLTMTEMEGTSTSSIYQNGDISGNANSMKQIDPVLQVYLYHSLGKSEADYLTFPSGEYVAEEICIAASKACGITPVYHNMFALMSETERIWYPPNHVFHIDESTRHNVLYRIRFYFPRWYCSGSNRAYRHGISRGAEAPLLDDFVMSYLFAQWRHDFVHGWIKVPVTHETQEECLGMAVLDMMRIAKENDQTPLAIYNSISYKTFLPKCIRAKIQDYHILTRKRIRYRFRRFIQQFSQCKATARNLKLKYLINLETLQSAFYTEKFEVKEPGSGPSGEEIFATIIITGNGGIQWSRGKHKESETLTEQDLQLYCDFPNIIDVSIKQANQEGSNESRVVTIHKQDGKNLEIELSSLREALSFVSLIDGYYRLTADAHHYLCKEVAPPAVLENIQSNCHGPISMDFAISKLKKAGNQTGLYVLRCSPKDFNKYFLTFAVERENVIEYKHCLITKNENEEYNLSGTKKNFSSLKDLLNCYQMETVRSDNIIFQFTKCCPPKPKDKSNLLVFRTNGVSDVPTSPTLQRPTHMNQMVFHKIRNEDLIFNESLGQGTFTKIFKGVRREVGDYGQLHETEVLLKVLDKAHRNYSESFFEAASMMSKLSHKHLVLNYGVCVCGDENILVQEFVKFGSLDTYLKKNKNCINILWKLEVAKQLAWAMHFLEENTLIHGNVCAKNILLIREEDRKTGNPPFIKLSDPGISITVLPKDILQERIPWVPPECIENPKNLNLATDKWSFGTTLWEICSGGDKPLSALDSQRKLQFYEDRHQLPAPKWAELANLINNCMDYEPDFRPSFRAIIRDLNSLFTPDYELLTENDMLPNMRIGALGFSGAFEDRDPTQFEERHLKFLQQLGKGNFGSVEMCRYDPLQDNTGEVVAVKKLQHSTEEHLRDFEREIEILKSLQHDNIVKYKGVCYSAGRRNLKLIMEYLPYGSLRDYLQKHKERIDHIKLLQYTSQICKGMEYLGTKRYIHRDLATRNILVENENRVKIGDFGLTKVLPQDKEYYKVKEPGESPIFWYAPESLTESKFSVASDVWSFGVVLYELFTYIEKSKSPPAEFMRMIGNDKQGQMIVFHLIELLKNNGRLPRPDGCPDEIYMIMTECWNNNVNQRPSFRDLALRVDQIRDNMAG

As for `Cc1cc(NC(=O)Nc2ccc(Oc3ccnc4cc5c(cc34)C(C)(C)C(=O)N5)c(Cl)c2)no1`, the concentration for half-maximal inhibition (IC50) amounted to 5.76 µM in assay [1], 8.46 µM in [2], 5.86 µM in assay [3] and 0.0187 µM in assay [4].
For the molecule `Cc1cc(NC(=O)Nc2ccc(Oc3ccnc4cc5c(cc34)C(C)(C)C(=O)N5)c(F)c2)no1`, the IC50 in assay [1] came to 5.03 µM; in assay [2] it was 12 µM; in assay [3] it was 4.18 µM; in assay [4], 0.0272 µM.
On the same counts, the results for `CC1(C)C(=O)Nc2cc3nccc(Oc4ccc(NC(=O)Nc5cccc(F)c5)cc4F)c3cc21` are 7.71 µM, 15.5 µM, 5.64 µM and 0.0252 µM.
The corresponding values for `Cc1cccc(C)c1NC(=O)Nc1ccc(Oc2ccnc3cc4c(cc23)C(C)(C)C(=O)N4)c(F)c1` are 4.07 µM, 10.3 µM, 3.75 µM and 0.0303 µM.
On the same counts, the results for `CC1(C)C(=O)Nc2cc3nccc(Oc4ccc(NC(=O)Nc5ccc(F)c(C(F)(F)F)c5)cc4F)c3cc21` are 2.16 µM, 8.09 µM, 2.85 µM and 0.0159 µM.
Take `CC1(C)C(=O)Nc2cc3nccc(Oc4ccc(NC(=O)Nc5cccc(F)c5)cc4Cl)c3cc21`: the IC50 in assay [1] was 4.38 µM; in assay [2] it was 7.35 µM; in assay [3] it was 6.49 µM; in [4] it was 0.0221 µM.
On the same counts, the results for `Cc1cccc(C)c1NC(=O)Nc1ccc(Oc2ccnc3cc4c(cc23)C(C)(C)C(=O)N4)cc1` are 10.5 µM, 20.3 µM, 10.3 µM and 0.0521 µM.
On the same counts, the results for `Cc1cccc(C)c1NC(=O)Nc1ccc(Oc2ccnc3cc4c(cc23)C(C)(C)C(=O)N4)c(Cl)c1` are 3.85 µM, 11.2 µM, 4.39 µM and 0.0281 µM.
On to `CC1(C)C(=O)Nc2cc3nccc(Oc4ccc(NC(=O)Nc5cccc(F)c5)cc4)c3cc21`, for which the IC50 came out at 5.46 µM in assay [1], 12 µM in assay [2], 10.6 µM in [3] and 0.0373 µM in assay [4].
On to `CC1(C)C(=O)Nc2cc3nccc(Oc4ccc(NC(=O)Nc5ccc(F)c(C(F)(F)F)c5)cc4)c3cc21`, for which the IC50 worked out at 3.2 µM in assay [1], 9.56 µM in assay [2], 4.23 µM in assay [3] and 0.0147 µM in assay [4].
Turning to `CC1(C)C(=O)Nc2cc3nccc(Oc4ccc(NC(=O)Nc5ccc(F)c(C(F)(F)F)c5)cc4Cl)c3cc21`, the inhibition in assay [5] was 1.4%; in [6] it was 15.3%; in assay [7], 46.9%; in [8], 20.2%; in [9] it was 4.9%; in [10] it was 0.3%. Moreover, the inhibition came to 7.8% in assay [11]; 16.5% in assay [12]; 34.1% in assay [13]; 4.7% in assay [14]; 94.6% in assay [15]; 3.6% in assay [16]. For the same molecule, the inhibition is 22.3% in [17]; 18.7% in assay [18]; 15% in [19]; 1.5% in assay [20]; 1.3% in [21]; 0.6% in assay [22]. The inhibition is 0.2% in assay [23] and 26.2% in assay [24]. Moreover, the IC50 worked out at 0.916 µM in assay [1], 6.36 µM in assay [2], 1.1 µM in [3] and 0.0087 µM in [4].
As for `Cc1cc(NC(=O)Nc2ccc(Oc3ccnc4cc5c(cc34)C(C)(C)C(=O)N5)cc2)no1`, the IC50 was found to be 6.47 µM in assay [1], 31.7 µM in assay [2], 10.1 µM in assay [3] and 0.0585 µM in assay [4].
On the same counts, the results for `CNC(=O)c1cc(Oc2ccc(NC(=O)Nc3ccc(Cl)c(C(F)(F)F)c3)cc2)ccn1` [SORAFENIB] are 5.23 µM, 12.7 µM, 6.78 µM and 0.0285 µM.

Values taken from ChEMBL document CHEMBL3217507, “3,3-Dimethyl-1H-pyrrolo[3,2-g]quinolin-2(3H)-one derivatives as novel Raf kinase inhibitors” (Medchemcomm, 2013).
